Publication PMC6950057, “Toxicity, Pharmacokinetics, and Gut Microbiome of Oral Administration of Sesterterpene MHO7 Derived from a Marine Fungus” (Marine Drugs, 2019)

What was measured:
[1] = Stability in simulated intestinal fluid (SIF); assay type: in vitro ADME; details: for percentage concentration remaining in SIF: at 8 h
Procedure: SGF was prepared with modifications according to Lee et al. (2012) by mixing 100 mL of distilled water with a pH value set to 2.0 with hydrochloric acid and 1 g pepsin solution (800–2000 U/mg of protein). SIF was produced according to USP specifications (Test Solutions, United States Pharmacopeia 35, NF 30, 2012). Monobasic potassium phosphate (0.68 g) was dissolved in 25 mL of water. Then, 7.7 mL of 0.2 M NaOH was added to adjust the pH to 6.8. To this, 1 g of pancreatin was added and shaken gently until dissolved and the volume adjusted to 100 mL with water. Pancreatin was added after adjusting the pH of the solution to 6.8 to avoid precipitation of the enzyme.
Aliquots (199 µL) of SGF and SIF were placed in 1.5 mL microcentrifuge tubes and incubated at 37 °C for 10 min in a water bath, respectively. Different concentrations of MHO7 (1 µL) were added to each of the above microcentrifuge tubes to start the reaction with being incubated at 37 °C at 250 rpm in a shaking water bath. The reaction was stopped by adding ice ACN (800 µL) to each tube at intervals of 0, 0.5, 1, 2, 4, 6, and 8 h. The samples were vortexed for 15 min and centrifuged at 4 °C and 15,000 rpm for 15 min. After centrifuging the supernatant layer was taken directly for LC-MS analysis. Each experiment was carried out in triplicate, and average values were plotted. QC samples were prepared in the same way of inactivating pepsin in SGF incubation system at the concentrations of 1, 0.1 and 0.01 μM·L^−1 for HQC, MQC and LQC, respectively.

[2] = Acute toxicity / maximum tolerated dose, oral; assay type: in vivo, mice; parameters: Body weight / Heart weight / Liver weight / spleen weight / lung weight / kidney weight / Reproductive organs weight / brain weight: unit not given here; details: both sexes, mouse, in vivo, 2400 mg·kg^−1; oral administration, male and female KM mice; read-out: maximum tolerable dose (MTD)
Procedure: (§1) Male and female KM mice of 8–10 weeks of age (20–22 g) were used in acute toxicity experiment and only female KM mice were subjected in other animal experiments. All mice were purchased from the Vital River Laboratory Animal Technology Co. Ltd. (Beijing, China). The mice were bred in a standard environment (23 ± 1 °C; humidity of 60 ± 5%) with a 12-h light/dark cycle and food and water were provided ad libitum. All animal protocols were approved by the Animal Care and Use Committee of Wuhan University Center for Animal Experiment ABSL-Ⅲ Laboratory and complied with the Guide for the Care and Use of Laboratory Animals (NIH publication, 8th edition, 2011). In total, 130 mice were used for in vivo studies under the ethical approved protocols.
(§2) Male and female KM mice of 8–10 weeks of age (20–22 g) were used in acute toxicity experiment. After animals were acclimatized for 1 week, 20 female and 20 male mice were randomly and evenly divided into four groups. The mice of acute toxicity experiment were fasted overnight and administered by the oral dose of MHO7 (2400 mg·kg^−1, bw) diluted in corn oil the next morning. Then, mice were placed with free access to chow and water. […] The number surviving and their behaviors was also recorded every day.

KM mice = assay: Acute toxicity / maximum tolerated dose, oral; assay type: in vivo; parameters: Body weight / Heart weight / Liver weight / spleen weight / lung weight / kidney weight / Reproductive organs weight / brain weight: unit not given here; details: for Body weight / Heart weight / Liver weight / Reproductive organs weight / brain weight / kidney weight / lung weight / spleen weight: 2400 mg/kg
Procedure: as §1, §2

SMILES: CC(C)=C/C=C/[C@H](C)[C@H]1CC[C@]2(C)C[C@@H]3C(C)=CC(=O)[C@H]3/C(C=O)=C\C[C@@H]12 [MHO7, 6-epi-ophiobolin G]
- percentage concentration remaining in SIF ([1]; MHO7 added at 0.05 mM·L^−1, 37 °C): 94.83 ± 1.14%
- percentage concentration remaining in SIF ([1]; initial addition 0.5 mM·L^−1, 37 °C): 89.74 ± 0.86%
- stability in SIF ([1]; under the concentration of 5 mM·L^−1): stable
- MTD at 2 weeks [2]: 2400 mg/kg
- Body weight (KM mice; female mice): 33.30±2.1
- Heart weight (KM mice; female mice): 0.15±0.01
- Liver weight (KM mice; female mice): 1.49±0.09
- Reproductive organs weight (KM mice; female mice): 0.21±0.05
- brain weight (KM mice; female mice): 0.40±0.07
- kidney weight (KM mice; female mice): 0.46±0.02
- lung weight (KM mice; female mice): 0.22±0.02
- spleen weight (KM mice; female mice): 0.13±0.05
- Body weight (KM mice; male mice): 38.75±2.96
- Heart weight (KM mice; male mice): 0.18±0.02
- Liver weight (KM mice; male mice): 2.39±0.38
- Reproductive organs weight (KM mice; male mice): 0.19±0.02
- brain weight (KM mice; male mice): 0.42±0.06
- kidney weight (KM mice; male mice): 0.58±0.06
- lung weight (KM mice; male mice): 0.22±0.03
- spleen weight (KM mice; male mice): 0.15±0.03
- weight ranges (Table S5), treatment vs control group (KM mice; oral 2400 mg·kg^−1): no significant difference
- observed toxicity (KM mice; oral 2400 mg·kg^−1, 14 days observation): No obvious toxicity was observed
- body weight, MHO7 group vs control group (KM mice; oral 2400 mg·kg^−1, after seven days): no significant difference
- diarrhea (KM mice; oral 2400 mg·kg^−1, female and male mice, returned to normal within two days): a small number of animals with diarrhea was found during the first day
- tolerability (KM mice; oral administration 2400 mg·kg^−1): well-tolerated
